Measurements reported in patent US6042841A, “Cosmetic method of treating skin” (Unilever Home & Personal Care USA Division of Conopco, Inc., priority 1998, dated 2000).

Columns and labels:
[1] = tested on: keratinocytes; experiment: Keratinocyte SDS viability assay (Neutral Red); type: cell-based; conditions: Keratinocyte; SDS 2 μg/ml, PA 0; 24 hours; n 8
Description: After incubating for 24 hours the medium was removed and the viability determined by the Neutral Red method.

[2] = tested on: procollagen-I; experiment: Immunohistochemical analysis of procollagen-I expression in photodamaged skin biopsies after topical retinoic acid; type: in vivo, human (women); conditions: for No. of Participants showing marked increase in expression of procollagen-I: 0.05% retinoic acid topical
Source text: (§1) Two groups of women were recruited with identical or nearly identical degrees of mild to moderate photodamage on each outer forearm. They were supplied with 0.05% retinoic acid in a moisturising base (Retinova®) and also with a colour matched moisturising cream with similar sensory characteristics (Dermacare® lotion), but no active ingredients, as a placebo control. Each participant of the two groups applied the Retinova® to one outer forearm and placebo (Dermacare®) to the other outer forearm. Group 1 applied the products daily to their outer forearms for 14 weeks and the Group 2 applied the products to their outer forearms for 28 weeks. At the end of the studies two full thickness 4 mm punch biopsies were taken from the treated areas of each forearm. Immunohistochemical analysis of the biopsy tissue taken from the participants was performed to identify the effect of retinoic acid treatment on the expression of the skin extracellular matrix components, decorin and procollagen-I, as compared with the placebo treated forearms. The following procedure was followed:
(§2) Antibody dilution buffer for wax sections was composed of Tris Buffered Saline (TBS), 3% bovine serum albumin (BSA), 0.05% Triton X-100 and 0.05% sodium azide. Primary antibodies for procollagen-I (amino terminal) were obtained from Chemicon International Inc. (cat# MAB 1912, rat IgGl) and used on wax sections at a dilution of 1:800, overnight at 4° C. after the section had been pre-treated with trypsin (0.5 mg/ml, 25 minutes, 37° C.). Primary antibodies for decorin were obtained from Biogenesis (rabbit polyclonal) and used on wax sections at a dilution of 1:800, overnight at 4° C. Anti-rat biotinylated secondary antibodies, obtained from DAKO (cat# E0468, rabbit polyclonal), were applied to wax sections at a dilution of 1:400. Anti-rabbit biotinylated secondary antibodies, obtained from Amersham (cat# RPN 1004, donkey polyclonal), were applied to wax sections at a dilution of 1:400. Streptavidin conjugated alkaline phosphatase, obtained from Zymed (cat# 43-4322), was used at a concentration of 1:2500. […]

[3] = tested on: decorin; experiment: Immunohistochemical analysis of decorin expression in photodamaged skin biopsies after topical retinoic acid; type: in vivo, human (women); conditions: for No. of Participants showing marked increase in expression of decorin: 0.05% retinoic acid topical
Source text: as §1, §2

[4] = tested on: decorin; experiment: Dot blot assay for decorin synthesis in human dermal fibroblasts; type: cell-based; conditions: Homo sapiens, Fibroblast, 24 h; 1 μm (so in the source); p=0.035, n=4; comparative trial; read-out: Decorin synthesis relative to vehicle treated control value of 100
Description: Primary human foreskin fibroblasts at passage 2 (P2) were seeded into 12-well plates at 10000 cells/cm^2 and maintained for 24 hours in an atmosphere of 5% carbon dioxide and 4% oxygen in Dulbeccos Modified Eagles Medium (DMEM) supplemented with 10% foetal calf serum. After this time the cells were washed with serum free DMEM and then incubated in fresh serum free DMEM for a further 60 hours. The fibroblast monolayers were then washed again with serum free DMEM. Test reagents and vehicle controls were added to the cells in triplicate in a final volume of 0.4 ml/well fresh serum free DMEM and incubated for a further 24 hours. This fibroblast conditioned medium was either analysed immediately or snap frozen in liquid nitrogen and stored at -70° C. for future analysis. The cells were then counted and data from the dot-blot analysis subsequently standardised to cell number.
Samples of conditioned medium from dermal fibroblasts treated with vehicle (as a control) or test reagents were supplemented with 20 mM dithiothreitol (1:10 dilution of 200 mM stock solution) and 0.1% sodium dodecylsulphate (1:100 dilution of 10% stock solution), mixed well and then incubated at 75° C. for 2 minutes. A standard for the assay was generated by serial dilution of neat fibroblast conditioned medium from fibroblasts seeded at 10000 cells/cm^2 in a 175 cm^2 flask and maintained in serum free DMEM as described above. Assay samples were subsequently applied in triplicate to a prewetted sheet of Immobilon-P transfer membrane using the 96-well Bio-Dot Apparatus from Bio-Rad as described in the manufacturers guidelines. Approximately 200 μl of medium was applied per well. […] Dot intensity was assessed by computer-assisted image analysis using the quantification tools in ImageQuant™, standardised to cell number and the effects of various test reagents on decorin and procollagen-I synthesis were determined relative to a vehicle treated control value of 100 arbitrary units.

[5] = tested on: ICAM; experiment: ICAM-1 assay, PMA-induced ICAM production in human skin fibroblasts; type: cell-based; conditions: PMA (10 nM)-treated; N 4
Description: Intracellular adhesion molecules (ICAM) and PEG2 production by human skin fibroblasts can be induced by the inflammatory stimulus PMA (phorbal myristate acetate). PMA represents an external stressor which induces oxidative stress and inflammatory responses in cells. This model is used to model inflammation in vivo.
Primary human foreskin fibroblasts at passage 2 (P2) were seeded into 96-well plates at 10000 cells/well and maintained for 24 hours in an atmosphere of 5% carbon dioxide in Dulbeccos Modified Eagles Medium (DMEM) supplemented with 10% foetal calf serum. […] Phorbal myristate acetate (PMA) (Sigma) was added to the media and the cells incubated for a further 24 hours. […] The fibroblasts/media were then analysed as described below immediately or snap frozen in liquid nitrogen and stored at -70° C. for future analysis. The cells were then counted and data from the dot-blot analysis subsequently standardised to cell number.
ICAM-1 assay: Media were discarded and cells washed with Dulbecco PBS. To the washed cells, 150 μl 0.1% Triton X-100 (Sigma) was added for 3 minutes to extract ICAM from cell membrane. The extracts were transferred to Eppendoff centrifuge tubes and centrifuged at 1000 g for 2 min to remove cell debris. A volume of 100 μl supernatant was used for ICAM assay. The soluble ICAM-1 was assessed with commercially available immunoenzymometric assay kit (R&D Systems). Concentrations of ICAM-1 in the samples were determined based on parallelly running standard curve.

[6] = Group 1 after 14 weeks, total 16 participants, daily
[7] = Group 2 after 28 weeks, total 15 participants
[8] = topical application of Retinova, vs placebo

CCCCCCCCCCCCOS(=O)(=O)[O-].[Na+] [SDS, sodium dodecyl sulphate, reference compound]
viability at 2 µg/mL [1]: 55.8%

CC1=C(/C=C/C(C)=C/C=C/C(C)=C/C(=O)O)C(C)(C)CCC1 [Retinoic Acid, retinoic acid]
No. of Participants showing marked increase in expression of procollagen-I [2, 6]: 9
No. of Participants showing marked increase in expression of procollagen-I [2, 7]: 10
procollagen-I expression in photodamaged skin (in words) [2, 8]: marked upregulation
No. of Participants showing marked increase in expression of decorin [3, 6]: 10
No. of Participants showing marked increase in expression of decorin [3, 7]: 15
decorin expression in photodamaged skin (in words) [3, 8]: marked upregulation
activity at 1 µM [4]: 138 ± 14%

CCCCCCCCCCCCCC(=O)O[C@@H]1[C@@H](C)[C@@]2(O)[C@@H](C=C(CO)C[C@]3(O)C(=O)C(C)=C[C@@H]23)[C@@H]2C(C)(C)[C@]12OC(C)=O [PMA, phorbal myristate acetate, reference compound]
ICAM [5]: 14.42 ± 1.86 ng/mL
